# Columns and labels:
# [1] = biological target: T1, Solute carrier organic anion transporter family member 1B1 (Homo sapiens, UniProt Q9Y6L6); details: chinese hamster, cho, 10 µM
# T1 sequence (Q9Y6L6 whole entry): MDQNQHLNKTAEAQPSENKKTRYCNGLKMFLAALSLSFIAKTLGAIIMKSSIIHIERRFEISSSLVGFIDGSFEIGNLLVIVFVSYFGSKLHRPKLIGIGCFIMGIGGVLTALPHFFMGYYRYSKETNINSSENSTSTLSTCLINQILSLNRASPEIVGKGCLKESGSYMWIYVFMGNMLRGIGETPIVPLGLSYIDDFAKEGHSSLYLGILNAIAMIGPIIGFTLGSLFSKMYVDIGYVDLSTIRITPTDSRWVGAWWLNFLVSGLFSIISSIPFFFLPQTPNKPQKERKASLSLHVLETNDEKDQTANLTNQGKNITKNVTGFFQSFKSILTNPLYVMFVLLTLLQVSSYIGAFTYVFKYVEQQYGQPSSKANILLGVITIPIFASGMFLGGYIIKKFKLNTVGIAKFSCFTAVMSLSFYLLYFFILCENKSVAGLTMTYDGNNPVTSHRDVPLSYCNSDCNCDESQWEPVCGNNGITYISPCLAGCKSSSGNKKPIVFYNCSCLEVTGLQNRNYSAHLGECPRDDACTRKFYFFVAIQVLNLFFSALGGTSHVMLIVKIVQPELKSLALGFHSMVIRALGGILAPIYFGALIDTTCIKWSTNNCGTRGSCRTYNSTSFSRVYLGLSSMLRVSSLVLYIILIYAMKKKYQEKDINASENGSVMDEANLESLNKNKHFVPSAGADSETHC
# [2] = biological target: T2, Solute carrier organic anion transporter family member 1B3 (Homo sapiens, UniProt Q9NPD5); details: chinese hamster, cho, 10 µM
# T2 sequence (Q9NPD5 whole entry): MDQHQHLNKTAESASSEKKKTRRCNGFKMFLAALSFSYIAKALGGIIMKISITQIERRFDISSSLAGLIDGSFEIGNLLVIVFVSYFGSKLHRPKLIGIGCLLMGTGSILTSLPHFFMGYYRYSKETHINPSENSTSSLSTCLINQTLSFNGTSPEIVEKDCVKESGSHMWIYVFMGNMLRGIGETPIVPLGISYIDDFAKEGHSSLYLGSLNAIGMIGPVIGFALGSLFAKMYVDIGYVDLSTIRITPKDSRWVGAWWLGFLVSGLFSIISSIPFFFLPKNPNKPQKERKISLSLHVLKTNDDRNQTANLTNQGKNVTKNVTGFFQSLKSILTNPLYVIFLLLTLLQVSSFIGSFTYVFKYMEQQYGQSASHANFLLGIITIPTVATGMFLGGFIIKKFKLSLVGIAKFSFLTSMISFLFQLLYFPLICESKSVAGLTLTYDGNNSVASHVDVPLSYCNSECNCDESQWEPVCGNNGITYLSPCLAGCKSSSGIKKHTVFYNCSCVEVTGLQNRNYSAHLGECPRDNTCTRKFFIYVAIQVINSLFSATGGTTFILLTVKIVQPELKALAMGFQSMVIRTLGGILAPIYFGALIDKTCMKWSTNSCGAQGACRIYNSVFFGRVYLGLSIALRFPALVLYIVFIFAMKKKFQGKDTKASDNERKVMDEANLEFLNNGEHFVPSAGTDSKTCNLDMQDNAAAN
smiles,measurement,setting,value
C=C[C@H]1CN2CC[C@H]1C[C@H]2[C@H](O)c1ccnc2ccccc12 [CINCHONIDINE],residual activity,[1],86.58%
same,residual activity,[2],111.1%
C=C[C@H]1C[N@@]2CC[C@H]1C[C@@H]2[C@@H](O)c1ccnc2ccccc12 [CINCHONINE],residual activity,[1],122.3%
same,residual activity,[2],105.3%
C(=C\c1ccccc1)/CN1CCN(C(c2ccccc2)c2ccccc2)CC1 [CINNARIZINE],residual activity,[1],185.1%
same,residual activity,[2],102.7%
O=C(O)c1cn(C2CC2)c2cc(N3CCNCC3)c(F)cc2c1=O [CIPROFLOXACIN],residual activity,[1],105.3%
same,residual activity,[2],112.4%
C[N+](C)(C)CCOP(=O)(O)OP(=O)([O-])OC[C@H]1O[C@@H](n2ccc(N)nc2=O)[C@H](O)[C@@H]1O [CITICOLINE],residual activity,[1],81.06%
same,residual activity,[2],69.94%
CC(=O)NC1CCSC1=O (stereo unspecified) [CITIOLONE],residual activity,[1],110.6%
same,residual activity,[2],92.74%
CC1=C2C(=CO[C@H](C)[C@H]2C)C(O)=C(C(=O)O)C1=O [CITRININ],residual activity,[1],34.39%
same,residual activity,[2],67.29%
COc1cc(OC)c2ccc(=O)oc2c1 [CITROPTEN],residual activity,[1],81.95%
same,residual activity,[2],105.5%
COc1cc(N)c(Cl)cc1C(=O)NC1CCN(Cc2ccccc2)CC1.O=C(O)/C=C\C(=O)O [CLEBOPRIDE MALEATE],residual activity,[1],84.15%
same,residual activity,[2],124.4%
CC(C)(C)NCC(O)c1cc(Cl)c(N)c(Cl)c1.Cl (stereo unspecified) [CLENBUTEROL HYDROCHLORIDE],residual activity,[1],78.76%
same,residual activity,[2],99.43%
C[N+]12CCC(CC1)C(OC(=O)C(O)(c1ccccc1)c1ccccc1)C2.[Br-] (stereo unspecified) [CLIDINIUM BROMIDE],residual activity,[1],125.2%
same,residual activity,[2],92.46%
CCC[C@@H]1C[C@@H](C(=O)N[C@@H]([C@H]2O[C@H](SC)[C@H](O)[C@@H](O)[C@H]2O)[C@H](C)Cl)N(C)C1.Cl [CLINDAMYCIN HYDROCHLORIDE],residual activity,[1],69.97%
same,residual activity,[2],115.2%
CCC(=O)O[C@]1(C(=O)CCl)[C@@H](C)C[C@H]2[C@@H]3CCC4=CC(=O)C=C[C@]4(C)[C@@]3(F)[C@@H](O)C[C@@]21C [CLOBETASOL PROPIONATE],residual activity,[1],20.25%
same,residual activity,[2],21.34%
CCOC(=O)C(C)(C)Oc1ccc(Cl)cc1 [CLOFIBRATE],residual activity,[1],114.7%
same,residual activity,[2],127.7%
CC(C)(Oc1ccc(Cl)cc1)C(=O)O [CLOFIBRIC ACID],residual activity,[1],111.2%
same,residual activity,[2],99.14%
CC(C)(C)CC(C)(C)c1ccc(O)c(Cc2ccc(Cl)cc2Cl)c1 [CLOFOCTOL],residual activity,[1],77.9%
same,residual activity,[2],76.53%
CCN(CC)CCOc1ccc(C(=C(Cl)c2ccccc2)c2ccccc2)cc1 [CLOMIPHENE],residual activity,[1],99.41%
same,residual activity,[2],126.3%
CN(C)CCCN1c2ccccc2CCc2ccc(Cl)cc21.Cl [CLOMIPRAMINE HYDROCHLORIDE],residual activity,[1],43.58%
same,residual activity,[2],78.81%
Cl.Clc1cccc(Cl)c1NC1=NCCN1 [CLONIDINE HYDROCHLORIDE],residual activity,[1],73%
same,residual activity,[2],99.63%
C[C@@H]1CCC[C@H](C)N1NC(=O)c1ccc(Cl)c(S(N)(=O)=O)c1 [CLOPAMIDE],residual activity,[1],113.6%
same,residual activity,[2],107.3%
Cl.Clc1ccc(C(OCCN2CCCCC2)c2ccccc2)cc1 (stereo unspecified) [CLOPERASTINE HYDROCLORIDE],residual activity,[1],53.44%
same,residual activity,[2],89.01%
COC(=O)[C@H](c1ccccc1Cl)N1CCc2sccc2C1.O=S(=O)(O)O [CLOPIDOGREL BISULFATE],residual activity,[1],145.3%
same,residual activity,[2],96.14%
Cc1nc(C)c(Cl)c(O)c1Cl [CLOPIDOL],residual activity,[1],154.4%
same,residual activity,[2],91.88%
CC(=O)OC1CCC23CC1(C)CCC2C(C)(C)CC3OC(C)=O (stereo unspecified) [CLOVANEDIOL DIACETATE],residual activity,[1],109.5%
same,residual activity,[2],85.3%
Cc1onc(-c2ccccc2Cl)c1C(=O)N[C@@H]1C(=O)N2[C@@H]1SC(C)(C)[C@@H]2C(=O)[O-].O.[Na+] [CLOXACILLIN SODIUM],residual activity,[1],47.3%
same,residual activity,[2],63.22%
Oc1ccc(Cl)c2cccnc12 [CLOXYQUIN],residual activity,[1],104%
same,residual activity,[2],93.36%
CN1CCN(C2=Nc3cc(Cl)ccc3Nc3ccccc32)CC1 [CLOZAPINE],residual activity,[1],86.29%
same,residual activity,[2],93.38%
COc1cc2c(c(OC)c1OC)-c1ccc(=O)c(O)cc1[C@@H](NC(C)=O)CC2 [COLCHICEINE],residual activity,[1],124%
same,residual activity,[2],109.6%
COc1cc2c(c(OC)c1OC)-c1ccc(OC)c(=O)cc1[C@@H](NC(C)=O)CC2 [COLCHICINE],residual activity,[1],75.12%
same,residual activity,[2],101%
C=C[C@@]1(C)CC(=O)[C@]2(O)[C@@]3(C)[C@@H](O)CCC(C)(C)[C@@H]3[C@H](O)[C@H](OC(C)=O)[C@@]2(C)O1 [COLFORSIN],residual activity,[1],118.8%
same,residual activity,[2],83.25%
C[C@H]1[C@H]2CC[C@H]3[C@@H]4CC=C5C[C@@H](N(C)C)CC[C@]5(C)[C@H]4CC[C@]23CN1C [CONESSINE],residual activity,[1],100.9%
same,residual activity,[2],111.5%
COc1cc(/C=C/CO)ccc1O [CONIFERYL ALCOHOL],residual activity,[1],49.7%
same,residual activity,[2],66.12%
CCC[C@H]1CCCCN1 [CONIINE],residual activity,[1],105.3%
same,residual activity,[2],100.1%
C[C@@H]1O[C@@H](O[C@H]2CC[C@]3(C=O)[C@H]4CC[C@]5(C)[C@@H](C6=CC(=O)OC6)CC[C@]5(O)[C@@H]4CC[C@]3(O)C2)[C@H](O)[C@H](O)[C@H]1O [CONVALLATOXIN],residual activity,[1],102.3%
same,residual activity,[2],95.81%
COc1cc2cc3c4cc(OC)c(OC)cc4cc[n+]3c(C)c2cc1OC.[Cl-] [CORALYNE],residual activity,[1],106.5%
same,residual activity,[2],150.5%
CC(=O)OCC(=O)[C@@]1(O)CC[C@H]2[C@@H]3CCC4=CC(=O)CC[C@]4(C)[C@H]3C(=O)C[C@@]21C [CORTISONE ACETATE],residual activity,[1],103.3%
same,residual activity,[2],98.8%
C[C@]12CCC(=O)C=C1CC[C@@H]1[C@@H]2C(=O)C[C@@]2(C)[C@H]1CC[C@]2(O)C(=O)CO [CORTISONE],residual activity,[1],76.37%
same,residual activity,[2],69.54%
CC(=O)OC[C@H]1O[C@@H](Oc2cc(OC(C)=O)c3c(=O)cc(-c4ccc(OC(C)=O)cc4)oc3c2)[C@H](OC(C)=O)[C@@H](OC(C)=O)[C@@H]1OC(C)=O [COSMOSIIN HEXAACETATE],residual activity,[1],95.2%
same,residual activity,[2],48.4%
COc1c2c(cc3c1OCO3)CC[N+](C)=C2.[Cl-] [COTARNINE CHLORIDE],residual activity,[1],85.95%
same,residual activity,[2],93.29%
CN1C(=O)CC[C@H]1c1cccnc1 [COTININE],residual activity,[1],106.5%
same,residual activity,[2],103%
CCOP(=S)(OCC)Oc1ccc2c(C)c(Cl)c(=O)oc2c1 [COUMAPHOS],residual activity,[1],99.64%
same,residual activity,[2],124.8%
COc1ccccc1/C=C/C(=O)O [COUMARINIC ACID METHYL ETHER],residual activity,[1],110.4%
same,residual activity,[2],119.3%
O=c1ccc2ccccc2o1 [COUMARIN],residual activity,[1],116.6%
same,residual activity,[2],99.05%
C=C1C(=O)O[C@H]2C[C@@H]1C(OC(C)=O)C/C(C)=C/CC/C(C)=C/CC[C@@]2(C)O (stereo partly specified) [CRASSIN ACETATE],residual activity,[1],60.87%
same,residual activity,[2],65.53%
CN1CC(=O)NC1=N [CREATININE],residual activity,[1],105.7%
same,residual activity,[2],93.64%
O=C([O-])c1cc(=O)c2c(OCC(O)COc3cccc4oc(C(=O)[O-])cc(=O)c34)cccc2o1.[Na+].[Na+] [CROMOLYN SODIUM],residual activity,[1],101.2%
same,residual activity,[2],94.62%
CN1CCN(C(c2ccccc2)c2ccccc2)CC1 [CYCLIZINE],residual activity,[1],88.13%
same,residual activity,[2],103%
CN(C)CCC=C1c2ccccc2C=Cc2ccccc21.Cl [CYCLOBENZAPRINE HYDROCHLORIDE],residual activity,[1],85.24%
same,residual activity,[2],102.1%

# Source: ChEMBL document CHEMBL3039007, “Structure-based identification of OATP1B1/3 inhibitors” (Mol Pharmacol, 2013)
